Experimental findings from patent publication US5434186A, “Carboxylic acid leukotriene B4 antagonists” (Hoffmann-La Roche Inc., priority 1993, dated 1995) are described below.

In assay [1] the test system is LTB4 -induced bronchoconstriction. Briefly: Guinea Pig Bronchoconstriction In Vivo (LTB4-induced). Also noted: species or system guinea pig (Hartley strain). The conditions noted are these: Cavia porcellus, iv, i.v. five minutes prior to LTB4 (1 μg/kg i.v.), read-out: ID50 (mg/kg), i.v., LTB4-induced bronchoconstriction. On the procedure:
Male guinea pigs (Hartley strain) weighing 300 to 500 g are anesthetized with urethane (2 g/kg) intraperitoneally and a polyethylene cannula is inserted into the jugular vein for drug administration. Tracheal pressure is recorded from a cannula inserted into the trachea and connected to a Gould P23ID pressure transducer. After surgical preparation of the animals, a period of time is allowed for pulmonary functions to stabilize. The test compound is administered intravenously five minutes prior to leukotriene B4 administration according to the following protocol: Animals are paralyzed with succinylcholine (1.2 mg/kg i.v.) and mechanically respirated (Harvard rodent respirator) at 40 breaths/minute and 2.5 cc tidal volume. Propranolol (0.1 mg/kg) is then administered intravenously one minute prior to leukotriene B4 administration. Animals are then challenged with an intermediate constrictory dose of leukotriene B4 (1 μg/kg) delivered intravenously.
The change (cm H2 O) between pre and peak ventilatory pressure readings is averaged for five control and five drug treated animals. The percent inhibition is calculated from the formula:
((Control-Drug Treated)/Control)×100
When representative compounds of formula I of the invention were utilized as the test compounds the following results were obtained: […]

In assay [2] the test system is LTB4 mediated calcium fluxes in human neutrophils. The assay is described as follows: Calcium Flux Assay (inhibition of LTB4 mediated calcium fluxes in human neutrophils). It is filed as cell-based. The settings on record: Neutrophil; Fura2 labelled human neutrophils, 2.4 nM LTB4. On the procedure:
(§1) Human neutrophils are prepared from citrated or heparinized blood. The blood was diluted 1:1 with Hank's balanced salt solution (HBSS) minus calcium and magnesium and underlayed with 10 ml lymphocyte separation medium (Organon Teknika), followed by centrifugation at 500× g for 30 min., at room temperature. Supernatants are removed down to the red blood cell pellet. HBSS minus calcium and magnesium are added to give 25 ml. To this are added 25 ml 6% dextran in 0.85% NaCl. Samples are mixed and allowed to stand 20 min at room temperature. Supernatants are removed and centrifuged at 500× g for 5 min at 4° C. Pellets are resuspended with 20 ml 0.2% saline for 20 sec followed by the addition of 20 ml 1.6% saline. Samples are centrifuged at 500× g for 5 min at 4° C. The lysis is repeated and the cells (90-95% neutrophils) are resuspended at 2× 10^6 cell/ml in GEY's salt solution.
LTB4 induced changes in intracellular calcium concentration are measured using Fura2 labelled human neutrophils. Cells at a concentration of 2-5×10^6 /ml are labelled with 5 μM Fura2 for 30 minutes in Hank's balanced salt solution without calcium and magnesium. The cells are washed and resuspended at a final concentration of 1-2×10^7 cells/ml in Gey's solution. Calcium fluxes are initiated by the addition of 2.4 nM LTB4. Test compounds at appropriate concentrations are added to the cells just prior to the addition of LTB4. […] Fluorescence measurements are made in a Perkin Elmer model LS-5B spectrofluorimeter at a temperature setting of 37° C. Calcium concentrations are determined using the ratio method (ratio of cell fluorescence to media fluorescence).
When representative compounds of formula I of the invention were tested, the results set forth in Table H and expressed as inhibition of LTB4 mediated calcium fluxes in human neutrophils, were obtained.

In assay [3] the test system is LTB4 -induced bronchoconstriction. Briefly: Guinea Pig Bronchoconstriction In Vivo (LTB4-induced). The settings on record: Cavia porcellus, po, read-out: ID50 (mg/kg), p.o., LTB4-induced bronchoconstriction. Set-up: species or system guinea pig (Hartley strain).
The target of a further assay is T1, LTB4 Receptor (Homo sapiens, UniProt Q15722).
T1 construct: Isolated human neutrophils in Gey's salt solution; endogenous in cells; host or cells: human neutrophils isolated from blood (90-95% neutrophils)
T1 sequence (Q15722 whole entry): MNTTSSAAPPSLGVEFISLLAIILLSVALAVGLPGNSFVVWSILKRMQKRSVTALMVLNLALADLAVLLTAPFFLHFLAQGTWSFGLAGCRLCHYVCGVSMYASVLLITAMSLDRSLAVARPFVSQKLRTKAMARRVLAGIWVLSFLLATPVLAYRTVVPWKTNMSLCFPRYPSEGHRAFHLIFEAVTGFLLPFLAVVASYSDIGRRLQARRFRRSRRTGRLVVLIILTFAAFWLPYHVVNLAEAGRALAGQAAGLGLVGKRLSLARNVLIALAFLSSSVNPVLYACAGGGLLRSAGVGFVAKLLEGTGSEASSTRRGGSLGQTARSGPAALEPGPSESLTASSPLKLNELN
Briefly: LTB4 Receptor Binding Assay (inhibition of 3H-LTB4 binding, human neutrophils). The settings on record: 0.5 nM 3H-LTB4, 45 minutes on ice, isolated human neutrophils. On the procedure:
Binding assays can be performed in microtiter wells. Isolated human neutrophils in Gey's salt solution are incubated on ice for 45 minutes with 0.5 nM ^3 H-LTB4 in the presence or absence of test compounds. Assays are terminated by adding 12 ml ice cold 50 mM Tris (pH 7.4) followed by rapid filtration under vacuum through GF/C filters. Radioactivity is determined by scintillation counting. Non specific binding is defined as the binding not displaced by 100 fold excess of unlabelled LTB4. Specific binding is defined as the difference between total binding and non-specific binding. Non linear analysis of the binding data is performed using LIGAND (Munson and Rodbard, 1980). Ki (Inhibition Constant) values were determined using the Cheng-Prusoff relationship (Cheng and Prusoff, 1973).
as §1

Assay [4] concerns LTB4 -induced skin inflammation. Briefly: LTB4 Induced Skin Inflammation (hairless guinea pig). It is filed as in vivo. The conditions noted are these: for ID50, LTB4-induced skin inflammation, coinjection with LTB4: co-injection, 120 ng LTB4 intradermal; for ED50: Cavia porcellus. On the procedure:
Skin inflammation is induced in the hairless guinea pig by the intradermal injection of 50 μl Gey's salt solution/10% DMSO containing 120 ng LTB4. Injections are performed along the dorsal skin of the animals. Test compounds are administered at various times by co-injection, intravenous or oral administration. The test animals are euthanized four to six hours after the LTB4 injection and uniform skin punches are prepared from the injection sites. Punches are homogenized in 0.5% hexadecyltrimethyl ammonium bromide for one minute and centrifuged for 20 minutes at 14,000× g. Leukocyte accumulation is measured by assaying for myeloperoxidase activity in a kinetic assay using dimethoxybenzidine as the substrate. […] Skin injected with 120 ng LTB4 can show myeloperoxidase levels of 0.30-0.40 U/punch. LTB4 induced leukocyte accumulation is confirmed histologically in hematoxylin/eosin stained sections.

Assay [5] deals with myeloperoxidase activity in mucosal scrapings. Briefly: Acetic acid colitis (myeloperoxidase activity in mucosal scrapings). The settings on record: rat, 10 mg/kg twice daily for 3 days, N=10. Type of assay: in vivo, Male Wistar rats. On the procedure: Male Wistar rats, weighing 175-225 g, are pretreated with test compound at 10 mg/kg, twice daily for 3 days (72 hours) prior to the evaluation of colitis. Colitis is induced after 2 days (48 hours) with an enema of 2 ml of 3.5% acetic acid; the acetic acid is neutralized after 10 seconds by 3 ml of phosphate-buffered saline, pH 7.4. After 3 days (72 hours), animals are sacrificed and myeloperoxidase activity in mucosal scrapings is determined as described in the skin inflammation model. Myeloperoxidase levels are presented as Units/gm mucosa.

Setting [6] is: oral, read-out: ID50, LTB4-induced skin inflammation, oral route.

Read-outs that look alike come from different tables or passages of the source.

As a reminder, the IC50 is the concentration at which inhibition is half-maximal. Turning to `CCCc1c(OCCCCCCc2cccc(OCCCCCC(=O)O)c2CCC(=O)O)ccc2c1OCCC2=O` [Example 157, 2-[(5-Carboxypentyl)oxy]-6-[6-[(3,4-dihydro-4-oxo-8-propyl-2H-1-benzopyran-7-yl)oxy]hexyl]benzenepropanoic Acid], the ED50 in assay [1] is 0.07 mg/kg; in assay [3] it was 0.27 mg/kg. In addition, the IC50 in assay [2] stood at 1 nM.

For orientation: Ki means the equilibrium dissociation constant of an inhibitor or competing ligand from its target. A lower Ki goes with higher affinity. As to `CCCc1c(OCCCCCCc2cccc(OCCCCCO)c2CCC(=O)O)ccc2c1OCCC2=O` [Example 180, 2-[6-[(3,4-Dihydro-4-oxo-8-propyl-2H-1-benzopyran-7-yl)oxy]hexyl]-6-[(5-hydroxypentyl)oxy]benzenepropanoic Acid], the ED50 in assay [1] came out at 0.14 mg/kg; in assay [3], 4.8 mg/kg. Further, the IC50 in assay [2] amounted to 1 nM. In addition, the Ki at LTB4 Receptor turned out to be 1 nM.

As to `CCCc1c(OCCCCCCc2ccc(C(=O)c3cccc(C(=O)O)c3)cc2CCC(=O)O)ccc2c1OCCC2=O` [Example 99, 5-[(3-Carboxyphenyl)carbonyl]-2-[6-[(3,4-dihydro-4-oxo-8-propyl-2H-1-benzopyran-7-yl)oxy]hexyl]benzenepropanoic Acid], in assay [4], the “ID50, LTB4-induced skin inflammation, coinjection with LTB4” value (“ID50, LTB4-induced skin inflammation” below) is reported as 20 ng. The molecule also returned a Ki at LTB4 Receptor of 1 nM.

For `CCCc1c(OCCCCCCc2ccc(OCCCC(=O)O)cc2CCC(=O)O)ccc2c1OCCC2=O` [Example 54, 5-(3-Carboxypropoxy)-2-[6-[(3,4-dihydro-4-oxo-8-propyl-2H-1-benzopyran-7-yl)oxy]hexyl]benzenepropanoic Acid], the ED50 stood at 0.01 mg/kg in assay [1], 8.7 mg/kg in assay [3] and 5 mg/kg in assay [4] (setting [6]). Further, in assay [2], the IC50 worked out at 2 nM. Further, the “ID50, LTB4-induced skin inflammation” value in assay [4] was determined as 10 ng. Further, the “% inhibition (myeloperoxidase, acetic acid colitis)” value in assay [5] amounted to 68%.

Consider `CCCc1c(OCCCCCOc2ccc(C(=O)c3cccc(C(=O)O)c3)cc2CCC(=O)O)ccc2c1OCCC2=O` [Example 20, 5-[(3-Carboxyphenyl)carbonyl]-2-[5-[(3,4-dihydro-4-oxo-8-propyl-2H-1-benzopyran-7-yl)oxy]pentyloxy]benzenepropanoic Acid], for which the ED50 in assay [1] came to 1.46 mg/kg; in assay [4] (intravenous at the time of the intradermal LTB4 injection, read-out: ID50, LTB4-induced skin inflammation, intravenous administration) it was 6 mg/kg; in assay [4] (setting [6]), 30 mg/kg. The IC50 in assay [2] worked out at 1 nM. In addition, the “ID50, LTB4-induced skin inflammation” value in assay [4] is 100 ng. At LTB4 Receptor, this molecule showed a Ki of 2 nM.

For `CCCc1c(OCCCCCCc2cccc(OCC(=O)O)c2CCC(=O)O)ccc2c1OCCC2=O` [Example 152, 2-(Carboxymethoxy)-6-[6-[(3,4-dihydro-4-oxo-8-propyl-2H-1-benzopyran-7-yl)oxy]hexyl]benzenepropanoic Acid], in assay [1], the ED50 amounted to 2 mg/kg. Also, the IC50 in assay [2] is 3 nM. Further, at LTB4 Receptor, affinity was put at a Ki of 1 nM.

As to `CCCc1c(OCCCCCOc2ccc(Cl)cc2CCC(=O)O)ccc2c1OCCC2=O` [Example 17, 5-Chloro-2-[5-[(3,4-dihydro-4-oxo-8-propyl-2H-1-benzopyran-7-yl)oxy]pentyloxy]benzenepropanoic Acid], the ED50 in assay [1] came to 2.02 mg/kg. For the same molecule, the IC50 in assay [2] is 70 nM. This molecule had a Ki at LTB4 Receptor of 36 nM.

In the case of `CCCc1c(OCCCCCCc2cccc(CCCCCC(=O)O)c2CCC(=O)O)ccc2c1OCCC2=O` [Example 169, 2-(2-Carboxyethyl)-3-[6-[(3,4-dihydro-4-oxo-8-propyl-2H-1-benzopyran-7-yl)oxy]hexyl]benzenehexanoic Acid], the ED50 in assay [1] was found to be 0.13 mg/kg; in assay [3] it was 4.4 mg/kg. Further, the IC50 in assay [2] was 1 nM. Also, on LTB4 Receptor, the Ki stood at 1 nM.

As for `CCCc1c(OCCCCCOc2ccccc2CCC(=O)O)ccc2c1OCCC2=O` [Example 4, 2-[5-[(3,4-Dihydro-4-oxo-8-propyl-2H-1-benzopyran-7-yl)oxy]pentyloxy]benzenepropanoic Acid], the values for the ED50 in assay [1] and in assay [3] were 0.66 mg/kg and above 10 mg/kg, respectively. Besides, the IC50 in assay [2] was 26 nM.

In the case of `CCCc1c(OCCCCCOc2cccc(OCCCCC(=O)O)c2CCC(=O)O)ccc2c1OCCC2=O` [Example 62, 6-(4-Carboxybutoxy)-2-[5-[(3,4-dihydro-4-oxo-8-propyl-2H-1-benzopyran-7-yl)oxy]pentyloxy]benzenepropanoic Acid], the ED50 in assay [1] amounted to 2.06 mg/kg. In addition, the “ID50, LTB4-induced skin inflammation” value in assay [4] was found to be 35 ng. Moreover, the Ki at LTB4 Receptor turned out to be 0.8 nM.

On to `CCCc1c(OCCCCCCc2cccc(OCCCCC(=O)O)c2CCC(=O)O)ccc2c1OCCC2=O` [Example 126, 2-(4-Carboxybutoxy)-6-[6-[(3,4-dihydro-4-oxo-8-propyl-2H-1-benzopyran-7-yl)oxy]hexyl]benzenepropanoic Acid], for which the ED50 was 0.12 mg/kg in assay [1] and 0.54 mg/kg in assay [3]. For the same molecule, the IC50 in assay [2] was determined as 2 nM.

For `CCCc1c(OCCCCCOc2ccc(C(=O)CCCC(=O)O)cc2CCC(=O)O)ccc2c1OCCC2=O` [Example 87, 3-(2-Carboxyethyl)-4-[5-[(3,4-dihydro-4-oxo-8-propyl-2H-1-benzopyran-7-yl)oxy]pentyloxy]-δ-oxobenzenepentanoic Acid], the ED50 was 4.41 mg/kg in assay [1] and above 10 mg/kg in assay [3]. Also, the “ID50, LTB4-induced skin inflammation” value in assay [4] was found to be 20 ng. The same molecule returned a Ki on LTB4 Receptor of 3 nM.

With `CCCc1c(OCCCCOc2ccc(C(=O)c3cccc(C(=O)O)c3)cc2CCC(=O)O)ccc2c1OCCC2=O` [Example 24, 5-[(3-Carboxyphenyl)carbonyl]-2-[4-[(3,4-dihydro-4-oxo-8-propyl-2H-1-benzopyran-7-yl)oxy]butoxy]benzenepropanoic Acid], the IC50 in assay [2] came to 11 nM. This molecule also displayed an inhibition constant Ki on LTB4 Receptor of 15 nM.
